These compounds were tested against mIgG A22-4′ (anti-S. flexneri serotype 6 LPS monoclonal antibody) binding to SF6 LPS (assay: Inhibition ELISA: binding of mIgG A22-4′ to synthetic oligosaccharides (inhibition of mIgG binding to SF6 LPS)). Conditions: concentration of oligosaccharide required to inhibit 50% of mIgG A22-4′ (0.025 μg/ml) binding to purified SF6 LPS (strain Sc544); oligosaccharides tested as propyl glycoside; max 2.5 mM; ≤ = inferior to but close to the value.
Design: species or system mouse
Experimental: 2) ELISA for IC50 Measurements
The binding of the available mIgG A22-4′ to the synthetic oligosaccharides was measured as previously described (Phalipon A. et al (J. Immunol. 176 1686 (2006)). Briefly, the mIgG concentration to be used was defined in the first step. To do so, a standard curve was established for mIgG A22-4′. The mIgG was incubated at different concentrations, overnight at 4° C., on microtiter plates coated with SF6 LPS purified from the strain SF6 Sc544 at a concentration of […] in a carbonate buffer (pH 9.6), then with PBS-BSA 1% for 30 min at 4° C. After washing with PBS-Tween 20 (0.05%), alkaline phosphatase conjugated anti-mouse IgG was added at a dilution of 1/5,000 (Sigma-Aldrich) for 1 h at 37° C. After washing with PBS-Tween 20 (0.05%), the substrate was added (12 mg of p-nitrophenyl phosphate in 1.2 mL of 1 M Tris-HCl buffer (pH 8.8) and 10.8 mL of 5 M NaCl). Once the color developed, the plate was read at 405 nm Dynatech MR400 microplate reader). A standard curve OD=f([Ab]) was fitted to the quadratic equation Y=aX2+bX+c, where Y is the OD and X is the Ab concentration. A correlation factor (r^2) of 0.99 was routinely obtained. The mIgG A22-4′ concentration to be used in the second step for measuring the IC50, which is defined as the concentration of oligosaccharides required to inhibit 50% of mIgG binding to LPS, was chosen as follows. It corresponds to the minimal concentration of mAb which gives the maximal OD on the standard curve.
The maximum concentration tested was 2.5 mM for all oligosaccharides. Then, measurement of unbound mIgG was performed as described above using microtiter plates coated with purified SF6 LPS. The mAb concentration was deduced from the standard curve. A 100% unbound mIgG concentration was defined for the mAb incubated in the same conditions but without any oligosaccharide. […]
The binding of mIgG A22-4′ to the synthetic and oligo- or polysaccharides was evaluated in inhibition ELISA (Table B)

| SMILES | IC50 [µM] |
| --- | --- |
| CCCO[C@@H]1O[C@H](CO)[C@H](O)[C@H](O[C@@H]2O[C@H](C(=O)O)[C@H](O[C@@H]3O[C@@H](C)[C@H](O)[C@@H](O)[C@H]3O[C@@H]3O[C@@H](C)[C@H](O)[C@@H](OC(C)=O)[C@H]3O)[C@H](O)[C@H]2O)[C@H]1NC(C)=O [AcCDAB, Propyl 3-O-acetyl-α-L-rhamnopyranosyl-(1→2)-α-L-rhamnopyranosyl-(1→4)-β-D-galactopyranosyluronic acid-(1→3)-2-acetamido-2-deoxy-β-D-galactopyranoside] | 36 |
| CCCO[C@@H]1O[C@@H](C)[C@H](O)[C@@H](OC(C)=O)[C@H]1O[C@@H]1O[C@H](CO)[C@H](O)[C@H](O[C@@H]2O[C@H](C(=O)O)[C@H](O[C@@H]3O[C@@H](C)[C@H](O)[C@@H](O)[C@H]3O[C@@H]3O[C@@H](C)[C@H](O)[C@@H](OC(C)=O)[C@H]3O)[C@H](O)[C@H]2O)[C@H]1NC(C)=O [AcCDABAcC, Propyl 3-O-acetyl-α-L-rhamnopyranosyl-(1→2)-α-L-rhamnopyranosyl-(1→4)-β-D-galactopyranosyluronic acid-(1→3)-2-acetamido-2-deoxy-β-D-galactopyranosyl-(1→2)-3-O-acetyl-α-L-rhamnopyranoside] | ≤ 500 |
| CCCO[C@@H]1O[C@H](CO)[C@H](O)[C@H](O[C@@H]2O[C@H](C(=O)O)[C@H](O[C@@H]3O[C@@H](C)[C@H](O)[C@@H](O)[C@H]3O[C@@H]3O[C@@H](C)[C@H](O)[C@@H](O)[C@H]3O)[C@H](O)[C@H]2O)[C@H]1NC(C)=O [CDAB, Propyl α-L-rhamnopyranosyl-(1→2)-α-L-rhamnopyranosyl-(1→4)-β-D-galactopyranosyluronic acid-(1→3)-2-acetamido-2-deoxy-β-D-galactopyranoside] | 16 |

— US10376593B2, “Glycoconjugates and their use as potential vaccines against infection by Shigella flexneri” (INSTITUT PASTEUR, priority 2012, dated 2019)
